These results are taken from patent US7414140B2 (Teva Pharmaceutical Industries Ltd., priority 2003, dated 2008).

The structures appear in SMILES notation.

This data set can be described thus: Solubility of fluvastatin sodium in solvents. The class given is physicochemical. As to conditions: in water at 100° C.; read-out: Concentration of solution obtainable (solubility). The text has this:
Fluvastatin sodium Form XLI can be prepared by precipitating fluvastatin sodium from a mixture of water and acetonitrile. Fluvastatin sodium should first be dissolved in water. The water may be heated in order to produce a more concentrated solution and maximized recovery of Form XLI. […] The addition is done at whatever elevated temperature was used to dissolve the starting material or at higher temperature. The addition is dropwise and will generally require adding a excess of acetonitrile over the amount of water that was used. For example, we used a little less than four volumes of acetonitrile. The resulting heterogeneous mixture is then allowed to cool. Before isolating the fluvastatin sodium Form XLI that precipitates. The recovery can be improved by adding an addition portion of acetonitrile after cooling.
Fluvastatin sodium Form L can be prepared by precipitation from a mixture of methanol and ethyl acetate. The fluvastatin sodium starting material, in any crystalline form or amorphous, should first be dissolved in the methanol. […] The starting material can be dissolved either at ambient or elevated temperature, e.g. the boiling point of methanol. Once dissolved, precipitation of Form L is induced by dropwise addition of ethyl acetate to the solution at elevated temperature. The amount of ethyl acetate used is preferably about three times the volume of methanol. […]

In the case of `CC(C)n1c(/C=C/C(O)CC(O)CC(=O)O)c(-c2ccc(F)cc2)c2ccccc21` (stereo not drawn) [Fluvastatin sodium, [R*,S*-(E)]-(±)-7-[3-(4-fluorophenyl)-1-(1-methylethyl)-1H-indol-2-yl]-3,5-dihydroxy-6-heptenoic acid monosodium], the solubility was at least 375 mg/mL.
